According to patent US9388124B2, “Ingenol-3-acylates I” (LEO LABORATORIES LIMITED, priority 2010, dated 2016):
Read-outs that look alike come from different tables or passages of the source.

How the values were obtained:
Format in all cases: cell-based
[1] = test system: PMN's (polymorphonuclear leukocytes); assay: Neutrophil oxidative burst assay; conditions: Leukocyte, 40 min, read-out: Neutrophil oxidative burst Rel EC50 range
Protocol: Neutrophil Oxidative Burst Assay:
PMN's (polymorphonuclear leukocytes) were isolated and purified from fresh buffy coats by sequential sedimentation, density centrifugation and lysis of contaminating erythrocytes. Buffy coats were incubated with 2% methocel for 30-45 min to differentially sediment red blood cells. The leukocyte-rich supernatant was transferred to lymphoprep tubes to remove mononuclear cells by density centrifugation (400×g, 30 min). The pellet was resuspended and any remaining erythrocytes lysed using 0.2% NaCl for 30 sec before restoring isotonicity by the addition of 1.2% NaCl. This step was repeated until the cell pellet appears relatively free of red blood cells. Cells were resuspended in DPBS (Dulbecco's Phosphate Buffered Saline) (w.o. Ca^2+, Mg^2+) and the concentration adjusted to 1.4×10^6 cells/ml in HBSS (Hanks Balanced Salt solution) (w Ca^2+, Mg^2+) containing 0.1% BSA (Bovine Serum Albumin) and 5 mM glucose just prior to assay initiation. Titrated reference and test compounds were pre-mixed with HE (Hydroethidine) (10 μM final assay concentration) before addition to 96-well plates containing 2.5×10^5 cells. Following 40 min incubation at RT, changes in the respiratory burst was estimated by measuring fluorescence at 579 nm (excitation: 485 nm) using an Envision plate reader.
Test compound titration curves were fitted to a four-parameter sigmoidal curve after normalizing the effect of the test compound to the effect of the positive control (5×10^−7 M PEP0005). Rel EC50 denotes the concentration of test compound producing an effect that is midway between the fitted top and bottom. Abs EC50 is the concentration of test compound that provokes a response corresponding to 50% of the maximal effect associated with the positive control (5×10^−7 M PEP0005).

HeLa cells = assay: Necrosis assay; conditions: Homo sapiens, 0.5 h, read-out: HeLa Necrosis EC50 range
Protocol: HeLa cells (ATCC CCL-002) were grown in minimal essential medium (Invitrogen catalog no. 42360) containing 10% fetal bovine serum, 100 IU/ml penicillin and 100 μg/ml streptomycin. 4,000-6,000 cells were seeded into 96-well black ViewPlates-plates, clear bottom, (Perkin Elmer) in 100 μl medium and incubated overnight. Compounds were dissolved and pre-diluted in DMSO in 96-well polypropylene plates (Greiner) in a concentration range of 15 μM to 600 μM. At the time of the experiment cell plates were placed on heating blocks at 37° C., medium was removed and 40 μl fresh, pre-warmed medium was added per well. Cells were incubated for 15 min before addition of compounds. In parallel, 3 μl of compounds were diluted with 197 μl growth medium on a Tecan freedom-EVO pipetting station using 250 μl/s pipetting speed, in order to ensure effective mixing of the highly concentrated compound solutions with the aqueous phase. These pre-dilution plates were then equilibrated on heating blocks at 37° C. for 10 min. 80 μl pre-diluted compound were transferred manually to the corresponding wells containing HeLa cells yielding compound concentrations of 10 μM to 400 μM. Control conditions were 1% DMSO in growth medium (100% viability) and 400 μM ingenol mebutate in growth medium (0% viability). Plates were incubated on the heating blocks at 37° C. for 30 min. At the end of the incubation 10 μl PrestoBlue reagent (Invitrogen) were added to each well, plates were sealed with black seal, followed by incubation at 37° C. for 10 min with gentle shaking (150 rpm). Subsequently, plates were placed at room temperature for 20-30 min. Plates were read immediately after on an Envision Fluorescence reader (Perkin Elmer) with excitation at 535 nm and emission at 630 nm. Test compound titration curves were fitted to a four-parameter sigmoidal curve after normalizing the effect of the test compound to the effect of the positive control (4 10^−4 M PEP0005/ingenol mebutate). AbsEC50 denotes the concentration of test compound producing 50% effect.

[2] = test system: Primary human epidermal keratinocytes, HeKa; assay: HeKa cytokine release (IL-8) assay
Protocol: HeKa Cytokine Release (IL-8) Assay:
Primary human epidermal keratinocytes, HeKa, were seeded (10.000 cells/well) in 96-well plates the day before the assay. Test compounds were diluted in DMSO (dimethyl sulfoxide) and further diluted in assay medium and pipetted into wells of 96 well-plates containing HeKa cells. The plates were incubated for 6 h at 37° C. in humidified air with 5% CO2. Plates were centrifuged briefly to spin down cells at 4° C., the supernatant was removed and analysed by Meso Scale Discovery (MSD) 4-spot cytokine assay (Pro-inflammatory II Ultra Sensitive kit, MSD, MD, USA). The MSD assay employs a sandwich immunoassay format where capture antibodies are coated in a patterned array on the bottom of the wells of a 4-Spot-Multi-MSD plate. Standard samples were incubated in the MULTI-SPOT plates as well, and the cytokine (IL-8) binds to its corresponding capture antibody spot. The cytokine level was quantitated on a SECTOR™ Imager using a cytokine-specific Detection Antibody labelled with MSD SULFO-TAG™ reagent.
Test compound titration curves were fitted to a four-parameter sigmoidal curve after normalizing the effect of the test compound to the effect of the positive control (1.5×10^−7 M PEP0005). Rel EC50 denotes the concentration of test compound producing an effect that is midway between the fitted top and bottom.

| SMILES | EC50 [1] [nM] | EC50 (HeLa cells; HeLa) [nM] | EC50 ([2]; HEKa, 6 h, read-out: HeKa cytokine release (IL-8) Rel EC50 range) [nM] | EC50 ([1]; PMNs, 40 min at RT, hydroethidine fluorescence, normalized to 5×10^−7 M PEP0005) [nM] | EC50 (HeLa cells; HeLa cells, 30 min at 37° C., PrestoBlue, AbsEC50, normalized to 4 10^−4 M PEP0005/ingenol mebutate) [nM] | EC50 ([2]; HeKa cells, 6 h at 37° C., MSD IL-8, normalized to 1.5×10^−7 M PEP0005, read-out: HeKa cytokine release (IL-8) Rel EC50 range) [nM] |
| --- | --- | --- | --- | --- | --- | --- |
| CC1=C[C@]23C(=O)[C@@H](C=C(CO)[C@@H](O)[C@]2(O)[C@H]1OC(=O)C(=O)N(C)c1ccccc1)[C@H]1[C@@H](C[C@H]3C)C1(C)C [Compound 121, Ingenol 3-(2-(methyl(phenyl)amino)-2-oxo-acetate)] | 20 to 100 | < 350000 | > 100 | – | – | – |
| C/C=C(/C)C(=O)O[C@H]1C(C)=C[C@]23C(=O)[C@@H](C=C(CO)[C@@H](O)[C@]12O)[C@H]1[C@@H](C[C@H]3C)C1(C)C [PEP005, Ingenol-3-angelate, reference compound] | – | – | – | < 20 | 150000 to 350000 | < 20 |
